Experimental data: paper PMC6017431, “Role of Cationic Side Chains in the Antimicrobial Activity of C18G” (Molecules : A Journal of Synthetic Chemistry and Natural …, 2018)
Read-outs that look alike come from different tables or passages of the source. Non-standard residues stand in square brackets, D forms with d. Residues, ends and D or L forms follow the SMILES beside them. No end group written: not given here. Dap = NC[C@H](N)C(=O)O

Legend:
S. aureus ATCC: 27660 = type: cell-based, Staphylococcus aureus
Experimental: (§1) Each bacterial strain was streaked onto LB–Miller agar (BD-Difco, Franklin Lakes, NJ, USA) plates from a frozen stock collection (E. coli D31 [63] S. aureus ATCC: 27660, B. subtilis ATCC: 6051, P. aeruginosa PAO1 [17], and A. baumannii ATCC: 19606). After incubation to allow colony growth, plates stored in a refrigerator at 4 °C. Overnight cultures were inoculated with a single colony of each bacterial strain into fresh LB or Mueller Hinton broth (MH, BD-Difco) in sterile glass test tubes. Inoculated samples were placed in a 37 °C shaking incubator (250 rpm) for ~18 h. After the overnight incubation, a 1:200 dilution of the culture was made in fresh LB or MH for use in subsequent experiments.
(§2) Bacterial growth inhibition was investigated using the standard minimal inhibitory concentration (MIC) assay. Cultures of bacteria were grown as described above, subsequently diluted to ~10^5 cfu/mL in MH media. Subsequently, 90 μL of this diluted culture was added to wells of a sterile 96-well plate containing serially diluted aliquots of the peptides for a final volume in the well of 100 μL. The plate was covered and incubated at 37 °C for 18 h. After incubation the OD600 was measured with a Spectramax M5 multimode plate reader. Next, the minimal bactericidal concentration (MBC) was determined by taking 1 μL of culture from each well on the plate corresponding to peptide concentrations at and above the MIC and plating on a fresh LB-agar plate. The plate incubated overnight at 37 °C, and MBC was determined from the presence or absence of growth on each spot.

E. coli outer membrane = E. coli outer membrane permeabilization (β-lactamase / nitrocefin); type: cell-based; conditions: E. coli D31 in PBS, peptide up to 15 µM, 30 min exposure, absorbance 486 nm, at least 3 replicates
Experimental: Permeabilization of the E. coli outer membrane is monitored using the periplasmic enzyme β-lactamase and the chromogenic substrate nitrocefin. […] The full time course of the permeabilization assay is shown in the supplementary files (Figure S1).
(§3) Figure 4 E. coli membrane permeabilization. Chromogenic substrate breakdown after 30 min of exposure to peptides. (A) Outer membrane permeabilization assayed by nitrocefin breakdown. (B) Inner membrane permeabilization assayed by ONPG breakdown. In both panels colors represent C18G (green), C18G-Arg (red), C18G-His (gray), C18G-Orn (orange), C18G-Dap (blue).
Permeabilization of the E. coli outer membrane was performed as described previously. Briefly, a single colony of E. coli D31 was inoculated in LB Broth (Difco) containing […] ampicillin and allowed to grow at 37 °C with shaking overnight. The culture was diluted 1:200 in LB-Amp and incubated at 37 °C until the OD600 was ~0.2. The culture was subsequently centrifuged at 2500 rpm for 15 min. The pellet was resuspended in an equal volume of PBS and added to a 96-well plate containing serially diluted peptides or polymyxin B (positive control). Immediately before reading, nitrocefin was added to the wells (final concentration 0.25 mg/mL) and mixed by pipetting. The sample absorbance was measured at 486 nm for 90 min. All assays were performed at least in triplicate.

B. subtilis ATCC: 6051 = type: cell-based, Bacillus subtilis
Experimental: as §1, §2

E. coli inner membrane = E. coli inner membrane permeabilization (β-galactosidase / ONPG); type: cell-based; conditions: peptide up to 15 µM, 30 min time point, absorbance 420 nm, at least 3 replicates
Experimental: as §3
Permeabilization of the E. coli inner membrane is monitored with the cytoplasmic enzyme β-galactosidase and the chromogenic substrate ortho-nitrophenyl-β-galactoside (ONPG). This assay in conceptually similar to the outer membrane assay described above, but is focused only on the permeability of the inner membrane. The results are shown in Figure 4B for the 30 min time point of the assay, and the full time course is shown in the supplementary figures (Figure S2).
Inner membrane permeabilization was performed as described previously. The procedure follows that of the outer membrane permeabilization assay, described above, with several modifications. Bacteria were grown overnight in LB media lacking Amp, and dilutions were made in LB supplemented with IPTG. Assay plates were prepared the same, except that cells were not centrifuged before the assay, and were added to the plate directly in the culture medium. Positive control for the inner membrane assay was the cationic detergent CTAB. The substrate was ONPG dissolved in Z-buffer added to a final concentration 0.6 mg/mL in the wells. The sample absorbance was measured at 420 nm for 90 min. All assays were performed at least in triplicate

S. aureus membrane = S. aureus membrane permeabilization (propidium iodide, flow cytometry); type: cell-based; conditions: 30 min, relative to CTAB positive control
Experimental: The membrane architecture varies greatly between Gram-positive and Gram-negative bacteria. The ability of the peptides to permeabilize a Gram-positive bacterial membrane was also investigated; however, in this case, the use of a bacterial enzyme and chromogenic substrate was not possible. Instead, membrane permeability was assessed using the DNA binding fluorophore propidium iodide (PI). The PI molecule is generally impermeable across the cell membrane under normal conditions, but upon permeabilization, PI can readily cross the membrane and bind to DNA, resulting in a dramatic increase in fluorescence emission intensity.
Figure 5 Membrane permeabilization. (A) Permeabilization of S. aureus membranes by peptides. Cultures of S. aureus were incubated with varying concentrations of peptide and 3.75 µg/mL propidium iodide (PI). PI fluorescence was measured via flow cytometry after 30 min of exposure to peptides. Percent leakage was determined based on the positive control CTAB (data not shown). (B) Peptide induced hemolysis. Defibrinated sheep red blood cells were incubated for 1 h with varying concentrations of peptide or control at 37 °C in sterile PBS. After pelleting the remaining cells, the absorbance of the supernatant was measured at 415 nm to detect released hemoglobin. Percent leakage was determined based on the positive control CTAB (Figure S3). All data is the average of at least 3 replicates, where error bars represent the standard deviation.
Flow cytometry was used to identify cell permeability by incorporation of propidium iodide (PI) into S. aureus under various concentrations of CTAB detergent, C18G, C18G-Arg, C18G-His, C18G-Orn, C18G-Dap peptides using a BD FACSCelesta flow cytometer. Approximately 10,000 cells per sample in 100 µL of PBS, permeabilization reagent, and PI 5.6 μM solution, were incubated for 30 min or 45 min at 23 °C counted in duplicate, and fluorescent signal was evaluated Ex 488 nm laser, Em 575 filter. Percentage of cells found to be permeable for all samples was established by gating around cells on histogram illustrating PI signal with known complete permeabilization CTAB 102 µM.

[1] = Trp fluorescence binding to lipid vesicles; conditions: 2 µM peptide in PBS pH 7.0 titrated with SUVs up to 300 µM lipid, excitation 280 nm, 2-5 replicates
Description: Based on the proposed mechanism of membrane disruption, the ability of the C18G peptides to interact with lipid vesicles was investigated. All of the sequences contain a Trp residue which can be used as a reporter of the local environment. As the peptide moves from the aqueous milieu to the bilayer surface, the Trp experiences a significant change in the polarity of the local environment. This change in environmental polarity results in a shift of the Trp emission spectrum from more red-shifted (aqueous) to more blue-shifted (bilayer bound). […] The shift in the emission spectrum can be quantified by changes in […] (λmax) or by a shift in the spectral barycenter.
Figure 2 Trp fluorescence emission to measure peptide binding to vesicles. […] Trp emission barycenter was calculated after each addition of vesicles and plotted as a function of total lipid concentration. […]
Measurements were performed on a JY-Horiba fluoromax4 instrument with emission and excitation slits set to 2.5 nm. For lipid binding/titration assays, samples were excited at 280 nm with emission measured over the range of 300–400 nm. […] The barycenter of the spectrum is an intensity-weighted average over the wavelengths measured, and Δbarycenter is the difference between the barycenter of the sample lacking lipid, and that of a given sample [32, 65]. […]

[2] = MH media, ~10^5 cfu/mL, 37 °C, 18 h, OD600

Compound: CC(C)C[C@H](NC(=O)[C@H](C)N)C(=O)N[C@@H](Cc1c[nH]c2ccccc12)C(=O)N[C@@H](CN)C(=O)N[C@@H](CN)C(=O)N[C@@H](CC(C)C)C(=O)N[C@@H](CC(C)C)C(=O)N[C@@H](CN)C(=O)N[C@@H](CN)C(=O)N[C@@H](CC(C)C)C(=O)N[C@@H](CC(C)C)C(=O)N[C@@H](CN)C(=O)N[C@@H](CO)C(=O)N[C@@H](C)C(=O)N[C@@H](CN)C(=O)N[C@@H](CN)C(=O)N[C@@H](CC(C)C)C(=O)NCC(N)=O [C18G-Dap] (H-ALW[Dap][Dap]LL[Dap][Dap]LL[Dap]SA[Dap][Dap]LG-NH2)
- S. aureus MBC (S. aureus ATCC: 27660; ATCC: 27660, 18 h): 7.5 µM
- S. aureus MIC (S. aureus ATCC: 27660; ATCC: 27660, 18 h): 7.5 µM
- Fold increase in MIC relative to the parent sequence (S. aureus ATCC: 27660; against S. aureus): ≤ 4 fold
- Outer membrane permeabilization (nitrocefin breakdown) (E. coli outer membrane): permeabilization to a lesser extent
- B. subtilis MBC (B. subtilis ATCC: 6051; ATCC: 6051, 18 h): 1.875 µM
- B. subtilis MIC (B. subtilis ATCC: 6051; ATCC: 6051, 18 h): 1.875 µM
- Inner membrane permeabilization (ONPG breakdown) (E. coli inner membrane): little to no permeabilization

Compound: CC(C)C[C@H](NC(=O)[C@H](C)N)C(=O)N[C@@H](Cc1c[nH]c2ccccc12)C(=O)N[C@@H](CCCN)C(=O)N[C@@H](CCCN)C(=O)N[C@@H](CC(C)C)C(=O)N[C@@H](CC(C)C)C(=O)N[C@@H](CCCN)C(=O)N[C@@H](CCCN)C(=O)N[C@@H](CC(C)C)C(=O)N[C@@H](CC(C)C)C(=O)N[C@@H](CCCN)C(=O)N[C@@H](CO)C(=O)N[C@@H](C)C(=O)N[C@@H](CCCN)C(=O)N[C@@H](CCCN)C(=O)N[C@@H](CC(C)C)C(=O)NCC(N)=O [C18G-Orn] (HELM PEPTIDE1{A.L.W.[Orn].[Orn].L.L.[Orn].[Orn].L.L.[Orn].S.A.[Orn].[Orn].L.G.[am]}$$$$V2.0)
- Percent leakage (PI) of S. aureus membrane (S. aureus membrane; through 1.88 µM peptide): > 50%
- S. aureus MBC (S. aureus ATCC: 27660; ATCC: 27660, 18 h): 1.875 µM
- S. aureus MIC (S. aureus ATCC: 27660; ATCC: 27660, 18 h): 1.875 µM
- Outer membrane permeabilization (nitrocefin breakdown) (E. coli outer membrane): near maximal permeabilization observed above 3.75 µM
- B. subtilis MBC (B. subtilis ATCC: 6051; ATCC: 6051, 18 h): 7.5 µM
- B. subtilis MIC (B. subtilis ATCC: 6051; ATCC: 6051, 18 h): 3.75 µM
- Inner membrane permeabilization (ONPG breakdown) (E. coli inner membrane): very little observed leakage

Compound: ALWHHLLHHLLHSAHHLG-NH2 [C18G-His]
- Binding to 3:1 PC/PG lipid vesicles (shift of Trp emission barycenter) [1]: bound anionic bilayers with higher affinity than zwitterionic bilayers
- Percent leakage (PI) of S. aureus membrane (S. aureus membrane; 7.5 µM peptide): > 50%
- Percent leakage (PI) of S. aureus membrane (S. aureus membrane; 15 µM peptide): > 50%
- S. aureus MBC (S. aureus ATCC: 27660; ATCC: 27660, 18 h): 15 µM
- S. aureus MIC (S. aureus ATCC: 27660; ATCC: 27660, 18 h): 15 µM
- Outer membrane permeabilization (nitrocefin breakdown) (E. coli outer membrane): almost no permeabilization of the outer membrane except at 15 µM
- B. subtilis MBC (B. subtilis ATCC: 6051; ATCC: 6051, 18 h): >15 µM
- B. subtilis MIC (B. subtilis ATCC: 6051; ATCC: 6051, 18 h): 1.875 µM
- Inner membrane permeabilization (ONPG breakdown) (E. coli inner membrane): little to no permeabilization

Compound: ALWKKLLKKLLKSAKKLG-NH2 [C18G]
- S. aureus MBC (S. aureus ATCC: 27660; ATCC: 27660, 18 h): 3.75 µM
- S. aureus MIC (S. aureus ATCC: 27660; [2]): 1.875 µM
- Outer membrane permeabilization (nitrocefin breakdown) (E. coli outer membrane): near maximal permeabilization observed above 3.75 µM
- B. subtilis MBC (B. subtilis ATCC: 6051; 1 µL from wells at and above MIC plated on LB-agar, overnight 37 °C): 1.875 µM
- B. subtilis MIC (B. subtilis ATCC: 6051; [2]): 1.875 µM
- Inner membrane permeabilization (ONPG breakdown) (E. coli inner membrane): highest degree of permeabilization

Compound: ALWRRLLRRLLRSARRLG-NH2 [C18G-Arg]
- Binding to 100% PC lipid vesicles (shift of Trp emission barycenter) [1]: significant increase in binding to zwitterionic PC membranes compared to C18G
- Percent leakage (PI) of S. aureus membrane (S. aureus membrane; down through 3.75 µM peptide): ~ 90%
- S. aureus MBC (S. aureus ATCC: 27660; ATCC: 27660, 18 h): 3.75 µM
- S. aureus MIC (S. aureus ATCC: 27660; ATCC: 27660, 18 h): 3.75 µM
- Outer membrane permeabilization (nitrocefin breakdown) (E. coli outer membrane): near maximal permeabilization observed above 3.75 µM
- B. subtilis MBC (B. subtilis ATCC: 6051; ATCC: 6051, 18 h): 1.875 µM
- B. subtilis MIC (B. subtilis ATCC: 6051; ATCC: 6051, 18 h): 1.875 µM
- Inner membrane permeabilization (ONPG breakdown) (E. coli inner membrane): induced less leakage
